Measurements from the supplement of paper PMC10307832.

These cell lines were tested with O=C(/C=C/c1ccccc1)NC(NC(=S)Nc1cccc2cccnc12)C(Cl)(Cl)Cl [Salubrinal] + C[C@]1(O)C[C@@H](c2nc(-c3ccc4ccc(-c5ccccc5)nc4c3)c3c(N)nccn32)C1 [Linsitinib] (partner 1 µM) (assay: relative viability (nuclei count vs DMSO), 5 days (fraction); higher = more cells survive). Settings: first compound 0.08 µM.
Summary of the method: (§1)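 The day after seeding in 1536-well plates, lung cancer cell lines were treated by pin tool with a single drug, or with a fixed anchor-drug dose together with five library-drug doses (not always all listed) in √10 steps. After 5 days, a combined fix-and-stain solution (final 0.05% Triton X-100, 1% formaldehyde, 1 ug/ml Hoechst) was added. Nuclei counted on 4× images gave relative viability as treated counts over vehicle counts, reported as the median of duplicate plates.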
With PC-14 the relative viability was 1.02. For EKVX, the relative viability was 1.4. Cell Line LC-2-ad has a relative viability of 0.932. NCI-H1975 gave a relative viability of 1.1. Cell Line RERF-LC-KJ has a relative viability of 0.896. Cell Line NCI-H1944 has a relative viability of 1.28. NCI-H650 showed a relative viability of 0.778. In the case of PC-3 [JPC-3], the relative viability is reported as 0.927.

Same assay, conditions: first compound 0.253 µM
PC-14 gave a relative viability of 0.899. EKVX gave a relative viability of 0.744. For LC-2-ad, the relative viability was 0.812. NCI-H1975 gave a relative viability of 0.735. RERF-LC-KJ showed a relative viability of 0.806. With NCI-H1944 the relative viability was 1.23. For NCI-H650, the relative viability was 0.772. For PC-3 [JPC-3], the relative viability was 0.999.

Same assay, conditions: first compound 0.8 µM
For PC-14, the relative viability was 1.06. Work on EKVX yielded a relative viability of 1.15. Work on LC-2-ad yielded a relative viability of 0.912. NCI-H1975 was tested, and the relative viability was 1.17. Cell Line RERF-LC-KJ has a relative viability of 0.931. For NCI-H1944, the relative viability was 1.34. For NCI-H650, the relative viability was 0.99. PC-3 [JPC-3] was tested, and the relative viability was 0.982.

Same assay, conditions: first compound 2.53 µM
PC-14 was tested, and the relative viability was 0.975. EKVX showed a relative viability of 1.01. LC-2-ad showed a relative viability of 0.817. With NCI-H1975 the relative viability was 0.988. RERF-LC-KJ gave a relative viability of 0.791. Cell Line NCI-H1944 has a relative viability of 1.17. For NCI-H650, the relative viability was 0.959. In the case of PC-3 [JPC-3], the relative viability is reported as 0.928.

Same assay, conditions: first compound 8 µM
PC-14 gave a relative viability of 0.892. EKVX showed a relative viability of 0.856. Work on LC-2-ad yielded a relative viability of 0.844. For NCI-H1975, the relative viability was 0.946. In the case of RERF-LC-KJ, the relative viability is reported as 0.846. Cell Line NCI-H1944 has a relative viability of 1.15. Cell Line NCI-H650 has a relative viability of 0.756. With PC-3 [JPC-3] the relative viability was 0.937.

The cell lines below were run with O=C(/C=C/c1ccccc1)NC(NC(=S)Nc1cccc2cccnc12)C(Cl)(Cl)Cl [Salubrinal] + CC(=O)Nc1cccc(-n2c(=O)n(C3CC3)c(=O)c3c(Nc4ccc(I)cc4F)n(C)c(=O)c(C)c32)c1 [Trametinib] (partner 0.02 µM) in the same assay as above. Settings: first compound 0.08 µM.
Summary of the method: as §1
In the case of PC-14, the relative viability is reported as 0.695. EKVX was tested, and the relative viability was 0.332. LC-2-ad showed a relative viability of 1.01. For NCI-H1975, the relative viability was 0.281. RERF-LC-KJ was tested, and the relative viability was 0.872. NCI-H1944 was tested, and the relative viability was 0.451. With NCI-H650 the relative viability was 1.1. PC-3 [JPC-3] gave a relative viability of 0.734.

Same assay, conditions: first compound 0.253 µM
With PC-14 the relative viability was 0.753. EKVX gave a relative viability of 0.47. LC-2-ad was tested, and the relative viability was 0.848. Cell Line NCI-H1975 has a relative viability of 0.309. For RERF-LC-KJ, the relative viability was 0.867. In the case of NCI-H1944, the relative viability is reported as 0.448. In the case of NCI-H650, the relative viability is reported as 0.94. PC-3 [JPC-3] showed a relative viability of 0.697.

Same assay, conditions: first compound 0.8 µM
PC-14 was tested, and the relative viability was 0.736. EKVX showed a relative viability of 0.565. LC-2-ad gave a relative viability of 0.885. Cell Line NCI-H1975 has a relative viability of 0.36. Work on RERF-LC-KJ yielded a relative viability of 0.938. NCI-H1944 was tested, and the relative viability was 0.403. NCI-H650 gave a relative viability of 1.08. PC-3 [JPC-3] was tested, and the relative viability was 0.65.

Same assay, conditions: first compound 2.53 µM
For PC-14, the relative viability was 0.588. In the case of EKVX, the relative viability is reported as 0.303. For LC-2-ad, the relative viability was 0.946. With NCI-H1975 the relative viability was 0.376. Work on RERF-LC-KJ yielded a relative viability of 0.795. With NCI-H1944 the relative viability was 0.399. For NCI-H650, the relative viability was 1. With PC-3 [JPC-3] the relative viability was 0.693.

Same assay, conditions: first compound 8 µM
PC-14 showed a relative viability of 0.629. Cell Line EKVX has a relative viability of 0.358. In the case of LC-2-ad, the relative viability is reported as 0.917. For NCI-H1975, the relative viability was 0.312. RERF-LC-KJ was tested, and the relative viability was 0.81. NCI-H1944 was tested, and the relative viability was 0.374. NCI-H650 was tested, and the relative viability was 0.976. PC-3 [JPC-3] showed a relative viability of 0.651.

The cell lines below were run with O=C(/C=C/c1ccccc1)NC(NC(=S)Nc1cccc2cccnc12)C(Cl)(Cl)Cl [Salubrinal] + CCNC(=O)c1noc(-c2cc(C(C)C)c(O)cc2O)c1-c1ccc(CN2CCOCC2)cc1 [Luminespib] (partner 0.01 µM) in the same assay as above. Settings: first compound 0.08 µM.
Summary of the method: as §1
PC-14 was tested, and the relative viability was 0.23. With EKVX the relative viability was 0.902. With LC-2-ad the relative viability was 1.06. In the case of NCI-H1975, the relative viability is reported as 0.223. With RERF-LC-KJ the relative viability was 1.31. NCI-H1944 gave a relative viability of 0.792. Work on NCI-H650 yielded a relative viability of 0.753. Work on PC-3 [JPC-3] yielded a relative viability of 0.747.

Same assay, conditions: first compound 0.253 µM
With PC-14 the relative viability was 0.118. EKVX showed a relative viability of 0.969. With LC-2-ad the relative viability was 1.13. NCI-H1975 gave a relative viability of 0.394. RERF-LC-KJ showed a relative viability of 1.37. NCI-H1944 showed a relative viability of 1.04. Cell Line NCI-H650 has a relative viability of 0.791. Cell Line PC-3 [JPC-3] has a relative viability of 0.511.

Same assay, conditions: first compound 0.8 µM
In the case of PC-14, the relative viability is reported as 0.134. For EKVX, the relative viability was 0.839. Cell Line LC-2-ad has a relative viability of 1.05. Work on NCI-H1975 yielded a relative viability of 0.292. Cell Line RERF-LC-KJ has a relative viability of 1.41. For NCI-H1944, the relative viability was 0.807. In the case of NCI-H650, the relative viability is reported as 0.845. PC-3 [JPC-3] showed a relative viability of 0.671.

Same assay, conditions: first compound 2.53 µM
PC-14 showed a relative viability of 0.151. EKVX gave a relative viability of 0.86. LC-2-ad showed a relative viability of 0.979. In the case of NCI-H1975, the relative viability is reported as 0.257. RERF-LC-KJ was tested, and the relative viability was 1.13. NCI-H1944 was tested, and the relative viability was 0.733. With NCI-H650 the relative viability was 0.786. PC-3 [JPC-3] gave a relative viability of 0.736.

Same assay, conditions: first compound 8 µM
For PC-14, the relative viability was 0.126. For EKVX, the relative viability was 0.891. For LC-2-ad, the relative viability was 0.98. NCI-H1975 showed a relative viability of 0.282. RERF-LC-KJ was tested, and the relative viability was 1.08. NCI-H1944 showed a relative viability of 0.831. Cell Line NCI-H650 has a relative viability of 0.767. Work on PC-3 [JPC-3] yielded a relative viability of 0.571.

What follows are cell lines tested with Cc1ccc2nc(NCCN)c3ncc(C)n3c2c1 + Cc1nc(NC(=O)N2CCC[C@H]2C(N)=O)sc1-c1ccnc(C(C)(C)C(F)(F)F)c1 [Alpelisib] (partner 2 µM) in the same assay as above. Settings: first compound 0.04 µM.
Summary of the method: as §1
Work on PC-14 yielded a relative viability of 1.03. EKVX gave a relative viability of 0.962. Cell Line LC-2-ad has a relative viability of 0.953. For NCI-H1975, the relative viability was 0.618. Cell Line RERF-LC-KJ has a relative viability of 0.843. In the case of NCI-H1944, the relative viability is reported as 0.821. NCI-H650 showed a relative viability of 1.15. PC-3 [JPC-3] showed a relative viability of 1.03.

Same assay, conditions: first compound 0.1265 µM
In the case of PC-14, the relative viability is reported as 0.893. EKVX gave a relative viability of 0.856. LC-2-ad showed a relative viability of 0.827. NCI-H1975 showed a relative viability of 0.551. RERF-LC-KJ showed a relative viability of 0.769. Work on NCI-H1944 yielded a relative viability of 0.832. NCI-H650 was tested, and the relative viability was 0.922. For PC-3 [JPC-3], the relative viability was 1.08.

Same assay, conditions: first compound 0.4 µM
In the case of PC-14, the relative viability is reported as 0.92. EKVX gave a relative viability of 0.83. Work on LC-2-ad yielded a relative viability of 0.86. NCI-H1975 gave a relative viability of 0.677. RERF-LC-KJ gave a relative viability of 0.784. NCI-H1944 showed a relative viability of 0.869. Cell Line NCI-H650 has a relative viability of 1.1. PC-3 [JPC-3] was tested, and the relative viability was 1.05.

Same assay, conditions: first compound 1.265 µM
PC-14 gave a relative viability of 0.896. Cell Line EKVX has a relative viability of 0.808. Cell Line LC-2-ad has a relative viability of 1. NCI-H1975 gave a relative viability of 0.643. With RERF-LC-KJ the relative viability was 0.762. NCI-H1944 showed a relative viability of 0.823. Cell Line NCI-H650 has a relative viability of 0.997. PC-3 [JPC-3] was tested, and the relative viability was 0.983.

Same assay, conditions: first compound 4 µM
PC-14 gave a relative viability of 0.806. EKVX showed a relative viability of 0.778. For LC-2-ad, the relative viability was 0.875. NCI-H1975 showed a relative viability of 0.5. For RERF-LC-KJ, the relative viability was 0.81. With NCI-H1944 the relative viability was 0.909. NCI-H650 gave a relative viability of 0.975. PC-3 [JPC-3] gave a relative viability of 1.03.
